Patent US10548912B2, “Dosage regimen for a tiacumicin compound” (Astellas Pharma Europe Ltd., priority 2015, dated 2020)
Like-named read-outs stand apart in the source and are kept apart here.

Tests used:
[1] = test system: Clostridium difficile infections (CDI); conditions: following a vancomycin taper; cited from earlier work
[2] = test system: Clostridium difficile infection; conditions: Cornely 2012; 200 mg Fidaxomicin twice daily or vancomycin 125 mg four times daily orally for 10 days; cited from earlier work
CDI = conditions: Phase III studies, mITT analysis; cited from earlier work
[3] = test system: Clostridium difficile infection; test: Phase IIIb/IV randomized open-label EXTEND study (2819-MA-1002): extended fidaxomicin vs standard vancomycin; type: in vivo, human
Protocol: Fidaxomicin (FDX) is believed to reduce recurrence primarily through minimal collateral damage to colonic microflora. […] Subjects will receive 200 mg twice daily (b.i.d.) for 5 days from Day 1 to Day 5. From Day 6 to Day 25, subjects will receive 200 mg once daily on alternate days (first alternate day dose given on Day 7). This extension of the dose will allow a longer period for the protective microflora to recover and extend the period of time over which Clostridium difficile cells are suppressed, and kill any dormant spores that germinate. The extension of the dose also targets the early recurrence period documented in the phase 3 studies—the first 15 days after the end of therapy during which the majority of recurrences occurred. By covering this period this revised dosing regimen may reduce the recurrence to <10%, preferably to <5% and even more preferred to <3%. The impact on the gut microflora was limited supporting the rationale for this study.
The dosing of vancomycin (Vancocin™) to be administered in this study is in line with the SmPC for Vancocin. Subjects will receive 125 mg four times daily (q.i.d.) for 10 days from Day 1 to Day 10.
The dosage regimen was as described in Table 1 of Example 1.

[4] = test system: Clostridium difficile (C. diff) toxins A and B; test: Detection of C. difficile toxins A and B in human faecal samples by ELISA (EXTEND samples); type: in vivo
Protocol: The detection of Clostridium difficile (C. diff) toxins A and B in human faecal samples was performed by ELISA. The samples to be analysed originated from clinical study 2819-MA-1002 (EXTEND).
The samples were sent to LGC (Analytical lab in Fordham, Cambridgeshire, UK) packed in dry ice and upon receipt stored in a freezer (nominally −80° C.). For each patient a stool sample was collected at Day 0 (screening) and also in case of disease recurrence or an unscheduled visit. For subjects participating in the Microbiome sub-study stool samples were collected at: Day 0 (screening), Day 5, Day 12, Day 27, Day 40, Day 55 and in the case of disease recurrence or an unscheduled visit. A total of 596 faecal samples were collected during the study.
C. difficile toxins A and B in human faecal samples were detected using TECHLAB C. difficile Tox A/B II ELISA kits (Product Number T5015).
The assay readout is the spectrophotometric dual wavelength optical density (OD) read at 450 nm and referenced at 620 nm and expressed in Absorbance Units (AU). All samples were measured in duplicate. The presence (+) or absence (−) of toxin was reported together with the mean OD.
The acceptability of each batch of test samples was dependent on the data from the QC samples fulfilling the acceptance criteria outlined below in Table 5, in that all positive QCs remain above the cut off value of >0.080 OD and negative QCs remain ≤0.080 OD. All batches contained 2 separate sets of QC samples which were measured in duplicate. The precision was calculated between the OD of replicates of each set using the coefficient of variation (CV) which should be <20%.

[5] = test system: Clostridium difficile infection; conditions: Louie 2011; 200 mg Fidaxomicin twice daily or vancomycin 125 mg four times daily orally for 10 days; cited from earlier work
[6] = Day 55, extended fidaxomicin or standard vancomycin
[7] = Table 7, extended fidaxomicin regimen of Example 1 or standard vancomycin
[8] = extended fidaxomicin Day 55, standard vancomycin Day 40
[9] = Sub-study visit day 5, n = 20 per arm
[10] = Sub-study visit day 12, n = 20 per arm
[11] = Sub-study visit day 27, n = 20 Fidaxomicin, 17 Vancomycin

CN[C@H](CC(C)C)C(=O)N[C@H]1C(=O)N[C@@H](CC(N)=O)C(=O)N[C@H]2C(=O)N[C@H]3C(=O)N[C@H](C(=O)N[C@H](C(=O)O)c4cc(O)cc(O)c4-c4cc3ccc4O)[C@H](O)c3ccc(c(Cl)c3)Oc3cc2cc(c3O[C@@H]2O[C@H](CO)[C@@H](O)[C@H](O)[C@H]2O[C@H]2C[C@](C)(N)[C@H](O)[C@H](C)O2)Oc2ccc(cc2Cl)[C@H]1O [vancomycin]
Average symptom-free interval (SFI) [1]: 37 days
Recurrence 30 days after end of treatment (%) [2]: 26.9%
Recurrence 30 days after end of treatment (patients/N) [2]: 60/223
Sustained clinical cure 30 days after end of treatment (patients/N) [2]: 163/257
Recurrence of CDI (CDI): 26%
% of patients with <3 Unformed bowel movements per day (UBM) ([3]; Day 1): 21.1%
% of patients with ≥3 Unformed bowel movements per day (UBM) ([3]; Day 1): 78.9%
% of patients with <3 Unformed bowel movements per day (UBM) ([3]; Day 2): 40.6%
% of patients with ≥3 Unformed bowel movements per day (UBM) ([3]; Day 2): 59.4%
% of patients with <3 Unformed bowel movements per day (UBM) ([3]; Day 3): 59.6%
% of patients with ≥3 Unformed bowel movements per day (UBM) ([3]; Day 3): 40.4%
% of patients with <3 Unformed bowel movements per day (UBM) ([3]; Day 4): 72.0%
% of patients with ≥3 Unformed bowel movements per day (UBM) ([3]; Day 4): 28.0%
% of patients with <3 Unformed bowel movements per day (UBM) ([3]; Day 5): 81.4%
% of patients with ≥3 Unformed bowel movements per day (UBM) ([3]; Day 5): 18.6%
% of patients with <3 Unformed bowel movements per day (UBM) ([3]; Day 6): 80.6%
% of patients with ≥3 Unformed bowel movements per day (UBM) ([3]; Day 6): 19.4%
% of patients with <3 Unformed bowel movements per day (UBM) ([3]; Day 7): 85.5%
% of patients with ≥3 Unformed bowel movements per day (UBM) ([3]; Day 7): 14.5%
% of patients with <3 Unformed bowel movements per day (UBM) ([3]; Day 8): 86.8%
% of patients with ≥3 Unformed bowel movements per day (UBM) ([3]; Day 8): 13.2%
% of patients with <3 Unformed bowel movements per day (UBM) ([3]; Day 9): 88.1%
% of patients with ≥3 Unformed bowel movements per day (UBM) ([3]; Day 9): 11.9%
% of patients with <3 Unformed bowel movements per day (UBM) ([3]; Day 10): 89.9%
% of patients with ≥3 Unformed bowel movements per day (UBM) ([3]; Day 10): 10.1%
% of patients with <3 Unformed bowel movements per day (UBM) ([3]; Day 11): 91.5%
% of patients with ≥3 Unformed bowel movements per day (UBM) ([3]; Day 11): 8.5%
% of patients with <3 Unformed bowel movements per day (UBM) ([3]; Day 12): 94.7%
% of patients with ≥3 Unformed bowel movements per day (UBM) ([3]; Day 12): 5.3%
% of patients with <3 Unformed bowel movements per day (UBM) ([3]; Day 13): 84.4%
% of patients with ≥3 Unformed bowel movements per day (UBM) ([3]; Day 13): 15.6%
Recurrence of CDI (%) at visit 5 (Day 55) [3, 6]: 16.1%
Recurrence of CDI at visit 5 (Day 55) (patients/N) [3, 6]: 26/161
Recurrence of CDI at visit 5 (Day 55) (patients/N) ([3]; Day 55, extended fidaxomicin or standard vancomycin, listed as VAN): 15/94
Recurrence 30 days after end of treatment (%) [3, 7]: 16.1%
Recurrence 30 days after end of treatment (patients/N) [3, 7]: 26/161
Sustained clinical cure (%) at 30 days after end of treatment [3, 8]: 62.9%
Sustained clinical cure at 30 days after end of treatment (patients/N) [3, 8]: 105/167
Sustained clinical cure (%) at 30 days after end of treatment ([3]; extended fidaxomicin Day 55, standard vancomycin Day 40, listed as VAN): 62.9%
CDI toxin in faecal stool samples, Negative (%) [4, 9]: (75%)
CDI toxin in faecal stool samples, Negative (number of subjects) [4, 9]: 15
CDI toxin in faecal stool samples, Positive (%) [4, 9]: (25.0%)
CDI toxin in faecal stool samples, Positive (number of subjects) [4, 9]: 5
CDI toxin in faecal stool samples, Negative (%) [4, 10]: (100.0%)
CDI toxin in faecal stool samples, Negative (number of subjects) [4, 10]: 20
CDI toxin in faecal stool samples, Positive (number of subjects) [4, 10]: 0
CDI toxin in faecal stool samples, Negative (%) [4, 11]: (82.4%)
CDI toxin in faecal stool samples, Negative (number of subjects) [4, 11]: 14
CDI toxin in faecal stool samples, Positive (%) [4, 11]: (17.6%)
CDI toxin in faecal stool samples, Positive (number of subjects) [4, 11]: 3
Recurrence 30 days after end of treatment (%) [5]: 25.3%
Recurrence 30 days after end of treatment (patients/N) [5]: 67/265
Sustained clinical cure 30 days after end of treatment (patients/N) [5]: 198/309
